This test deals with fungal tyrosinase. The experiment in a line: in vitro inhibition of the activity of fungal tyrosinase (absorbance at 475 nm). In kind it is biochemical. The settings on record: for molar concentration for which an inhibition value of 25% is observed: compound dissolved in ethanol, phosphate buffer, L-tyrosine and L-Dopa substrates, OD 475 nm. The protocol: This test involves in measuring the absorbance (optical density OD) at 475 nm as a function of time for the hydroquinone dissolved (at various concentrations) in ethanol in the presence of a phosphate buffer, 1 ml of L-tyrosine at 2.0×10^−3 M in a phosphate buffer, 0.1 ml of L-Dopa at 1.0×10^−4 M in a phosphate buffer and 50 μl of a solution of fungal tyrosinase at 1 g/l in a phosphate buffer, compared with a control consisting of ethanol (solvent) used at the same concentration in the phosphate buffer.
The percentage of inhibition is determined by the following equation: [formula]
The molar concentration of hydroquinone for which an inhibition value of 25% is observed is then determined.
The test described in Example 1 above is used, except that N-ethyloxycarbonyl-4-para-aminophenol was substituted for N-cholesteryloxycarbonyl-4-para-aminophenol.

Each structure is given as a SMILES string.

`CCOC(=O)Nc1ccc(O)cc1` [N-ethyloxycarbonyl-4-para-aminophenol]: the “molar concentration for which an inhibition value of 25% is observed” value stood at 125 µM.
For the compound `Oc1ccc(O)cc1` [hydroquinone], the “molar concentration for which an inhibition value of 25% is observed” value was found to be 80 µM.
For the compound `CC(C)CCC[C@@H](C)[C@H]1CC[C@H]2[C@@H]3CC=C4C[C@@H](OC(=O)Nc5ccc(O)cc5)CC[C@]4(C)[C@H]3CC[C@]12C` [N-cholesteryloxycarbonyl-4-para-aminophenol], the inhibition of tyrosinase entry (compound alone at C2=6.77×10^−5 M (solubility limit in DMSO)) is reported as “no inhibition”.

The values are drawn from US6960347B2, “Composition based on N-cholesteryloxycarbonyl-4-para-aminophenol and hydroquinone or one of its derivatives” (L'Oreal, priority 2000, dated 2005).
